# Results as given in the NIST ThermoML archive (doi:10.1016/j.fluid.2019.03.019).
# ± gives the expanded uncertainty stated by the source.
# Conditions: Liquid; for mass density: 298.15 K, 101.33 kPa, Vibrating tube method; for vapor or sublimation pressure: Closed cell (Static) method
mass density,vapor or sublimation pressure (383.15 K),vapor or sublimation pressure (403.15 K),vapor or sublimation pressure (413.15 K),vapor or sublimation pressure (393.15 K),vapor or sublimation pressure (362.65 K),vapor or sublimation pressure (363.15 K),vapor or sublimation pressure (391.95 K),vapor or sublimation pressure (392.95 K),vapor or sublimation pressure (420.95 K),vapor or sublimation pressure (422.95 K),vapor or sublimation pressure (423.15 K),Compound
1063.24 ± 0.1 kg/m3,187 ± 6 kPa,320 ± 6 kPa,414 ± 6 kPa,–,–,–,–,–,–,–,–,COC(=O)OC [dimethyl carbonate]
785.09 ± 0.13 kg/m3,–,–,–,429 ± 7 kPa,–,–,–,–,–,–,–,CCO [ethanol]
786.42 ± 0.13 kg/m3,481 ± 6 kPa,843 ± 7 kPa,1092 ± 7 kPa,640 ± 7 kPa,251 ± 6 kPa,255 ± 6 kPa,618 ± 6 kPa,636 ± 7 kPa,1316 ± 7 kPa,1380 ± 8 kPa,1387 ± 8 kPa,CO [methanol]
–,–,–,–,199 ± 6 kPa,–,–,–,–,–,–,–,O [water]
